We go through two molecules from US20030124616A1, “Homocysteinylated transthyretin” (priority 2001, published 2003).

Assay [1] relates to human plasma fibronectin. As to the kind of experiment: Stoichiometry of 35S-L-homocysteine binding to fibronectin (scintillation counting). As for the experimental part:
The human plasma fibronectin purified by affinity chromatography described above was used in these studies. Purity was assessed by SDS-PAGE as described below. Purified fibronectin (200 μg/mL) was incubated with various concentrations (up to 500 μmol/L) of ^35S-L-homocysteine for up to 10 hours at 37° C. Unbound homocysteine was removed by precipitating the fibronectin with 5% trichloroacetic acid containing 0.5% tannic acid using transferrin as a carrier protein. The precipitated fibronectin was washed 3 times with the trichloroacetic acid/tannic acid, resuspended in 0.1 N NaOH and an aliquot subjected to scintillation counting.

The subject of assay [2] is human plasma fibronectin. As to the kind of experiment: Binding of 35S-L-homocysteine and 35S-L-cysteine to fibronectin (SDS-PAGE, phosphorimaging). To be noted: 500 μmol/L, 5 hours at 37° C. As for the experimental part: (§1) ^35S-L-homocysteine (500 μmol/L final concentration) was added to either human plasma fibronectin (1 mg/mL, 0.05 mol/L TES buffer, pH 7.4) or human plasma diluted 1:1 with 0.05 mol/L TES buffer, pH 7.4 and incubated under aerobic conditions for 5 hours at 37° C. with continuous shaking. Separate samples of human plasma and fibronectin were incubated with ^35S-L-cysteine (1,000 Ci/mmol) (New England Nuclear, Boston, Mass.) which was first diluted with cold L-cysteine (in 1 mol/L TES buffer, pH 7.4) to obtain a specific activity equal to that of the synthesized ^35S-L-homocysteine. The final concentrations of L-cysteine and TES in the reaction mixture was 500 μmol/L and 0.05 mol/L respectively and the incubation was carried out as described above for L-homocysteine. The bound radioactive homocysteine was detected by SDS-PAGE of the samples followed by phosphorimage analysis (Molecular Dynamics Inc., Sunnyvale, Calif.).
(§2) Samples were combined with SDS-PAGE sample buffer (62.5 mmol/L Tris-HCl, pH 6.8, 2% SDS, 10% glycerol, 0.02% bromophenol blue) and aliquots of some samples were reduced with 2-mercaptoethanol and heated to 100° C. for 5 minutes. The samples were loaded onto 4-20% precast gradient gels (Z Axis, Hudson, Ohio) and electrophoresed using the method of Laemmli. […]

The target in assay [3] is T1, albumin (Homo sapiens, UniProt P02768).
T1 construct: from tissue; host or cells: human plasma
The assay is described as follows: Binding of 35S-L-homocysteine and 35S-L-cysteine to plasma proteins (SDS-PAGE, phosphorimaging). To be noted: 500 μmol/L, plasma diluted 1:1 with TES buffer. As for the experimental part: as §1, §2

The target in assay [4] is T2, human transthyretin (TTR) (Homo sapiens, UniProt P02766).
T2 construct: Plasma TTR is a 127 amino acid protein containing a single cysteine residue at position 10; purchased Sigma
The assay is described as follows: Radiolabeling and SDS-PAGE of human plasma and purified transthyretin with 35S-L-homocysteine. The class given is binding. Conditions: 0.5 mM, 5 h, label lost with β-mercaptoethanol. As for the experimental part:
^35S-L-Homocysteine was incubated with 50% human plasma in 0.05 M TES buffer (pH 7.4), or with purified human transthyretin (1 mg/ml in water) for 5 h at 37 C. Protein was then precipitated with 1.5 M perchloric acid and washed three times with 1.5 M perchloric acid. The final pellet was solubilized in SDS-PAGE sample buffer with and without reduction by β-mercaptoethanol. After treatment at 100 C. for 10 min, aliquots were subjected to analysis by SDS-PAGE using a 10% gel. The gel was stained with Coomassie blue, dried and subjected to phosphorimaging to detect ^35S- labeled proteins.
In FIG. 1, ^35S-L-Homocysteine (0.5 mM) was incubated with 50% human plasma in 0.05M TES buffer (pH 7.4) and with commercially available human transthyretin from Sigma (1 mg/mL in water) for 5 hours at […]. Following the incubation, protein was precipitated with 1.5M perchloric acid and solubilized with SDS-PAGE sample buffer. Aliquots were subjected to analysis by SDS-PAGE using a 10% gel without (see lanes 1 and 2 in FIG. 1) and with reduction by β-mercaptoethanol followed by heating at 100° C. for 10 minutes (see lanes 3 and 4 in FIG. 1). The gel was strained with Coomassie blue, dried and subjected to phosphorimaging to detect ^35S-labeled proteins. […]

Molecules are shown by their SMILES.

T1 sequence (P02768 25-609): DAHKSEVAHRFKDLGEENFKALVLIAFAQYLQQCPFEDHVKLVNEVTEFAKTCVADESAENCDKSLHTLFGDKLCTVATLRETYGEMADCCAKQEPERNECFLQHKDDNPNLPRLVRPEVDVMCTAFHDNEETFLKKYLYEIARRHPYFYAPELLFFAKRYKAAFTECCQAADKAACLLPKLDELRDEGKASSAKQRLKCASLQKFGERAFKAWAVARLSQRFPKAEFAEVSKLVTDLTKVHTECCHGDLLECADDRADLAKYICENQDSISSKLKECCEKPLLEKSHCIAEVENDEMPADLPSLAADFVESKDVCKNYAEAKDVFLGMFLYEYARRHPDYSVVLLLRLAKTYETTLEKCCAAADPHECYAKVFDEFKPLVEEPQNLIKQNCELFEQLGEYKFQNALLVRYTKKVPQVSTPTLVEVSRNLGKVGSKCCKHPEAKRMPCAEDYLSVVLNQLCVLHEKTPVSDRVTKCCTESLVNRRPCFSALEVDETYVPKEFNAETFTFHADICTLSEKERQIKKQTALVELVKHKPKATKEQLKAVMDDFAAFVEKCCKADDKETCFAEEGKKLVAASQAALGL

As for `N[C@@H](CCS)C(=O)O` [L-homocysteine], the “time for binding to fibronectin to reach equilibrium” value in assay [1] (500 μmol/L homocysteine) is at most 5 h. Also, the “maximum homocysteine bound per mole of dimeric fibronectin” value in assay [1] (up to 500 μmol/L homocysteine, 37° C.) stood at 5 mol. The “binding to fibronectin in plasma or purified fibronectin” value in assay [2] is on record as “bound via a disulfide linkage”. In addition, in assay [3], the “binding to albumin in human plasma” value is given as “most of the radioactivity in the plasma was associated with albumin”. The “reaction with TTR (labeling of TTR dimer and tetramer)” value in assay [4] was “readily reacts with the Cys^10 position of TTR”.
As to `N[C@@H](CS)C(=O)O` [L-cysteine], the “binding to fibronectin in plasma or purified fibronectin” value in assay [2] is on record as “did not bind”. In assay [3], the “binding to albumin in human plasma” value is recorded as “bound to albumin”.
